These results are taken from ChEMBL document CHEMBL1165880, “'On water' assisted synthesis and biological evaluation of nitrogen and sulfur containing hetero-1,4-naphthoquinones as potent antifungal and antibacterial agents” (2010).

Experiment [1] concerns Trichophyton mentagrophytes. The experiment can be described thus: Antifungal activity against Trichophyton mentagrophytes after 96 hrs by micro broth dilution method. It is filed as functional.
Experiment [2] relates to Candida albicans. The experiment can be described thus: Antifungal activity against Candida albicans after 48 hrs by micro broth dilution method. It is filed as functional.
The test system of experiment [3] is Cryptococcus neoformans. The experiment can be described thus: Antifungal activity against Cryptococcus neoformans after 72 hrs by micro broth dilution method. The format is functional.
Experiment [4] relates to Escherichia coli. The experiment can be described thus: Antibacterial activity against Escherichia coli after 24 hrs by micro broth dilution method. The format is functional.
Experiment [5] has as its system Staphylococcus aureus. The experiment can be described thus: Antibacterial activity against Staphylococcus aureus ATCC 25923 after 24 hrs by micro broth dilution method. The format is functional.
In experiment [6] the test system is Aspergillus fumigatus. The experiment can be described thus: Antifungal activity against Aspergillus fumigatus after 72 hrs by micro broth dilution method. The format is functional.
Experiment [7] deals with Candida parapsilosis. The experiment can be described thus: Antifungal activity against Candida parapsilosis ATCC 22019 after 48 hrs by micro broth dilution method. The format is functional.
For experiment [8], the system named is Pseudomonas aeruginosa. The experiment can be described thus: Antibacterial activity against Pseudomonas aeruginosa […] at 50 ug/ml after 24 hrs by micro broth dilution method. The format is functional, organism-based.
For experiment [9], the system named is Klebsiella pneumoniae. The experiment can be described thus: Antibacterial activity against Klebsiella pneumoniae ATCC 27736 after 24 hrs by micro broth dilution method. The format is functional.

Values after ≈ are worked out from the molar mass of the structure shown. Active and inactive are the calls of the source. The rule behind the calls is not given here.

Consider `C[C@@H]1[C@H](O)[C@@H](C)/C=C/C=C/C=C/C=C/C=C/C=C/C=C/[C@H](O[C@@H]2O[C@H](C)[C@@H](O)[C@H](N)[C@@H]2O)C[C@@H]2O[C@](O)(C[C@@H](O)C[C@@H](O)[C@H](O)CC[C@@H](O)C[C@@H](O)CC(=O)O[C@H]1C)C[C@H](O)[C@H]2C(=O)O` [AMPHOTERICIN B], for which the results for the MIC50 in experiment [1], in [2] and in experiment [3] were 1.69 µM (≈ 1.56 µg/mL), 0.42 µM (≈ 0.388 µg/mL) and 0.84 µM (≈ 0.776 µg/mL), respectively.
Consider `COC(=O)CSC1=C(Cl)C(=O)c2ccccc2C1=O`, for which the MIC50 in experiment [1] was 42.1 µM (≈ 12.5 µg/mL); in [4], 42.1 µM (≈ 12.5 µg/mL); in [5], 42.1 µM (≈ 12.5 µg/mL); in experiment [6] it was 168 µM (≈ 50 µg/mL); in experiment [7], 168 µM (≈ 50 µg/mL); in experiment [2] it was above 168 µM. Besides, the MIC50 in [9] was found to be 42.1 µM (≈ 12.5 µg/mL); in experiment [3] it was 168 µM (≈ 50 µg/mL). In experiment [8], the result was inactive.
On to `O=C1C(=O)c2ccccc2C(O)=C1Sc1ccccc1`, for which the MIC50 in [1] was 177 µM (≈ 50 µg/mL); in [4] it was 88.6 µM (≈ 25 µg/mL); in [5], 177 µM (≈ 50 µg/mL); in experiment [6], above 177 µM; in experiment [7], above 177 µM; in experiment [2], 177 µM (≈ 50 µg/mL). For the same compound, the values for the MIC50 in experiment [9] and in experiment [3] were 177 µM (≈ 50 µg/mL) and above 177 µM, respectively. Moreover, the outcome in [8] was inactive.
Turning to `NCC[C@H](O)C(=O)N[C@@H]1C[C@H](N)[C@@H](O[C@H]2O[C@H](CN)[C@@H](O)[C@H](O)[C@H]2O)[C@H](O)[C@H]1O[C@H]1O[C@H](CO)[C@@H](O)[C@H](N)[C@H]1O` [AMIKACIN], the results for the MIC50 in [4], in experiment [5] and in [9] were 1.71 µM (≈ 1 µg/mL), 27.3 µM (≈ 16 µg/mL) and 1.71 µM (≈ 1 µg/mL), respectively.
In the case of `O=C(O)CC(SC1=C(Cl)C(=O)c2ccccc2C1=O)C(=O)O` (configuration not stated), the MIC50 in [1] was 36.7 µM (≈ 12.5 µg/mL); in experiment [4], 36.7 µM (≈ 12.5 µg/mL); in [5] it was 147 µM (≈ 50 µg/mL); in [6], 147 µM (≈ 50 µg/mL); in experiment [7], 147 µM (≈ 50 µg/mL); in experiment [2], above 147 µM. In addition, the MIC50 in [9] was found to be 4.58 µM (≈ 1.56 µg/mL); in experiment [3] it was 147 µM (≈ 50 µg/mL). In addition, the outcome in [8] was inactive.
As to `CN1CCN(C2=CC(=O)c3c(O)ccc(O)c3C2=O)CC1`, the MIC50 is above 173 µM in experiment [1]; 173 µM (≈ 50 µg/mL) in experiment [4]; 173 µM (≈ 50 µg/mL) in [5]; 173 µM (≈ 50 µg/mL) in [6]; 173 µM (≈ 50 µg/mL) in [7]; above 173 µM in experiment [2]. In addition, the results for the MIC50 in experiment [9] and in [3] were 173 µM (≈ 50 µg/mL) and above 73.4 µM, respectively. Moreover, the result in [8] was inactive.
Turning to `O=C(O)CSC1=C(Cl)C(=O)c2ccccc2C1=O`, the MIC50 turned out to be 5.52 µM (≈ 1.56 µg/mL) in [1]; 44.2 µM (≈ 12.5 µg/mL) in experiment [4]; 44.2 µM (≈ 12.5 µg/mL) in experiment [5]; 177 µM (≈ 50 µg/mL) in experiment [6]; 88.5 µM (≈ 25 µg/mL) in experiment [7]; 88.5 µM (≈ 25 µg/mL) in experiment [2]. Besides, the MIC50 in experiment [9] was 22.1 µM (≈ 6.25 µg/mL); in experiment [3] it was 88.5 µM (≈ 25 µg/mL). For the same compound, the result in experiment [8] was inactive.
In the case of `O=C1C(Cl)=C(SCCS)C(=O)c2ccccc21`, the MIC50 turned out to be 1.37 µM (≈ 0.39 µg/mL) in experiment [1]; 87.8 µM (≈ 25 µg/mL) in [4]; 43.9 µM (≈ 12.5 µg/mL) in experiment [5]; 87.8 µM (≈ 25 µg/mL) in experiment [6]; 43.9 µM (≈ 12.5 µg/mL) in experiment [7]; 11 µM (≈ 3.12 µg/mL) in experiment [2]. Further, the MIC50 in [9] came out at 21.9 µM (≈ 6.25 µg/mL); in [3], 11 µM (≈ 3.12 µg/mL). For the same compound, in [8], the outcome was inactive.
Consider `NC[C@H]1O[C@H](O[C@H]2[C@H](O)[C@@H](O[C@H]3O[C@H](CO)[C@@H](O)[C@H](N)[C@H]3O)[C@H](N)C[C@@H]2N)[C@H](O)[C@@H](O)[C@@H]1O` [KANAMYCIN], for which the figures for the MIC50 in [4], in experiment [5] and in [9] were 33 µM (≈ 16 µg/mL), 4.13 µM (≈ 2 µg/mL) and 66 µM (≈ 32 µg/mL), respectively.
Turning to `OC(Cn1cncn1)(Cn1cncn1)c1ccc(F)cc1F` [FLUCONAZOLE], the MIC50 worked out at 5.09 µM (≈ 1.56 µg/mL) in experiment [1], 3.26 µM (≈ 0.998 µg/mL) in experiment [7], 3.26 µM (≈ 0.998 µg/mL) in [2] and 1.63 µM (≈ 0.499 µg/mL) in experiment [3].
For the compound `CCOC(=O)C(C)SC1=C(Cl)C(=O)c2ccccc2C1=O` (configuration not stated), the MIC50 in experiment [1] was above 154 µM; in [4] it was 38.5 µM (≈ 12.5 µg/mL); in [5], 38.5 µM (≈ 12.5 µg/mL); in [6] it was above 154 µM; in experiment [7], above 154 µM; in [2], above 154 µM. Further, the MIC50 in experiment [9] is 154 µM (≈ 50 µg/mL); in experiment [3], 38.5 µM (≈ 12.5 µg/mL).
For the compound `O=C1C(Cl)=C(N2CCOCC2)C(=O)c2ccccc21` [2-Chloro-3-morpholino-1,4-naphthoquinone], the MIC50 is 2.81 µM (≈ 0.78 µg/mL) in [1]; 45 µM (≈ 12.5 µg/mL) in experiment [4]; 180 µM (≈ 50 µg/mL) in [5]; 90.1 µM (≈ 25 µg/mL) in experiment [6]; 22.5 µM (≈ 6.25 µg/mL) in [7]; 45 µM (≈ 12.5 µg/mL) in experiment [2]. The MIC50 in [9] and in experiment [3] was 22.5 µM (≈ 6.25 µg/mL) in each case. In addition, in experiment [8], the outcome was inactive.
Consider `NC[C@H]1O[C@H](O[C@H]2[C@H](O)[C@@H](O[C@H]3O[C@H](CO)[C@@H](O)[C@H](N)[C@H]3O)[C@H](N)C[C@@H]2N)[C@H](N)C[C@@H]1O` [TOBRAMYCIN], for which the MIC50 in [4] was 1.07 µM (≈ 0.5 µg/mL); in [5], 0.53 µM (≈ 0.248 µg/mL); in experiment [9] it was 2.14 µM (≈ 1 µg/mL).
